# Columns and labels:
# EVSA-T cells = test: Cell proliferation assay (CellTiter-Glo), EVSA-T; type: cell-based; settings: Homo sapiens, EVSA-T, 72 h, 72 h treatment, Celltiter-Glo luminescence
# Method in brief: (§1)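 Compounds tested over ten concentrations ([…]) for 72 h on EVSA-T cells in MEM/10% FBS and MDA-MB-231 cells in RPMI-1640/10% FBS, seeded at 10000/well. Luminescent CellTiter-Glo readout; IC50 fitted after normalisation to controls.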
# MDA-MB-231 cells = test: Cell proliferation assay (CellTiter-Glo), MDA-MB-231; type: cell-based; settings: Homo sapiens, MDA-MB-231, 72 h, 72 h treatment, Celltiter-Glo luminescence
# Method in brief: as §1
SMILES,IC50 (EVSA-T cells),IC50 (MDA-MB-231 cells)
"C[C@@H]1CN(CC(=O)N2CC(C)(C)c3c2cc([C@H](O)c2ccc(F)cc2)c2ncnn32)[C@@H](CN2CCOC[C@H]2C)CN1 [Compound 134, 1-(4-((R)-(4-fluorophenyl)(hydroxy)methyl)-8,8-dimethyl-7,8-dihydro-6H-pyrrolo[2,3-e][1,2,4]triazolo[1,5-a]pyridin-6-yl)-2-((2R,5R)-5-methyl-2-(((R)-3-methylmorpholino)methyl)piperazin-1-yl)ethan-1-one]",83 nM,190 nM
"C[C@@H]1CN(CC(=O)N2CC(C)(C)c3c2cc(Cc2ccc(F)cc2)c2nnc(C(F)(F)F)n32)[C@@H](CN2CCOC[C@H]2C)CN1 [Example 13, 1-(4-(4-fluorobenzyl)-8,8-dimethyl-1-(trifluoromethyl)-7,8-dihydro-6H-pyrrolo[2,3-e][1,2,4]triazolo[4,3-a]pyridin-6-yl)-2-((2R,5R)-5-methyl-2-(((R)-3-methylmorpholino)methyl)piperazin-1-yl)ethan-1-one]",9 nM,170 nM
"C[C@@H]1CN(CC(=O)N2CC(C)(C)c3c2cc([C@@H](O)c2ccc(F)cc2)c2ncnn32)[C@@H](CN2CCOC[C@H]2C)CN1 [Compound 133, 1-(4-((S)-(4-fluorophenyl)(hydroxy)methyl)-8,8-dimethyl-7,8-dihydro-6H-pyrrolo[2,3-e][1,2,4]triazolo[1,5-a]pyridin-6-yl)-2-((2R,5R)-5-methyl-2-(((R)-3-methylmorpholino)methyl)piperazin-1-yl)ethan-1-one]",56 nM,210 nM
"C[C@@H]1CN(CC(=O)N2CC(C)(C)c3c2cc(Cc2ccc(F)cc2)n2ncnc32)[C@@H](CN2CCOC[C@H]2C)CN1 [Example 25, 1-(5-(4-fluorobenzyl)-9,9-dimethyl-8,9-dihydro-7H-pyrrolo[3,2-c][1,2,4]triazolo[1,5-a]pyridin-7-yl)-2-((2R,5R)-5-methyl-2-(((R)-3-methylmorpholino)methyl)piperazin-1-yl)ethan-1-one]",11 nM,84 nM
"C[C@@H]1CN(CC(=O)N2CC(C)(C)c3c2cc(Cc2ccc(F)cc2)c2nc(C(F)F)cn32)[C@@H](CN2CCOC[C@H]2C)CN1 [Compound 122, 1-(2-(difluoromethyl)-4-(4-fluorobenzyl)-8,8-dimethyl-7,8-dihydro-6H-imidazo[1,2-a]pyrrolo[2,3-e]pyridin-6-yl)-2-((2R,5R)-5-methyl-2-(((R)-3-methylmorpholino)methyl)piperazin-1-yl)ethan-1-one]",6 nM,65 nM
